Converted amounts (≈) assume the structure as drawn.
What follows are molecules tested on Helicobacter pylori (assay: Antibacterial activity against Helicobacter pylori after 48 hrs).
Format: functional

**Q.** How did the MBC turn out when `C/C(=C/CC[C@H](C)C1CC[C@]2(C)C3=C(CC[C@@]12C)[C@@]1(C)CCC(=O)C(C)(C)C1CC3)C(=O)O` (stereo partly specified) was run?
**A.** Its MBC is 333 µg/mL (≈ 732 µM).

**Q.** `CC1(C)CC[C@]2(C(=O)O)CC[C@]3(C)C(=CC[C@@H]4[C@@]5(C)CCC(=O)C(C)(C)[C@@H]5CC[C@]43C)[C@@H]2C1` [OLEANONIC ACID] was tested. Which MBC did it give?
**A.** The MBC was 292 µg/mL (≈ 642 µM).

**Q.** How did the MBC turn out when `C/C(=C/CC[C@H](C)C1CC[C@]2(C)C3=CCC4C(C)(C)[C@@H](O)CC[C@]4(C)C3CC[C@@]12C)C(=O)O` (stereo partly specified) was run?
**A.** The MBC was 220 µg/mL (≈ 482 µM).

**Q.** How did the MBC turn out when `C/C(=C/CC[C@H](C)C1CC[C@]2(C)C3=C(CC[C@@]12C)[C@@]1(C)CC[C@H](O)C(C)(C)C1CC3)C(=O)O` (stereo partly specified) was run?
**A.** Its MBC is 202 µg/mL (≈ 442 µM).

**Q.** Which MBC does the source give for `C/C(=C/CC[C@H](C)C1CC[C@]2(C)C3=CCC4C(C)(C)C(=O)CC[C@]4(C)C3CC[C@@]12C)C(=O)O` (stereo partly specified) here?
**A.** Its MBC is 350 µg/mL (≈ 770 µM).

**Q.** Which MBC does the source give for `CC1(C)C=C2[C@H]3CC[C@@H]4[C@@]5(C)CCC(=O)C(C)(C)[C@@H]5CC[C@@]4(C)[C@]3(C)CC[C@@]2(C(=O)O)CC1` [MORONIC ACID] here?
**A.** Its MBC is 310 µg/mL (≈ 682 µM).

From ChEMBL document CHEMBL1142187, “In vitro and in vivo activities of Chios mastic gum extracts and constituents against Helicobacter pylori” (2007)
